One assay deals with superoxide. The assay can be described thus: Cell-free detection of and specificity for superoxide (luciferase luminescence). The class given is biochemical. The conditions noted are these: probe 25 μM in PBS, FIG. 3. On the procedure:
The superoxide probe, Compound 1 (6-(4-hydroxy-3,5-dimethoxyphenoxy)benzo[d]thiazole-2-carbonitrile), was diluted into PBS to 25 μM into wells of a 96-well white-walled assay plate. Subsequently, generators of reactive oxygen and nitrogen species were diluted in PBS and added to the assay plate. The plate mixed using an orbital plate shaker for 5 minutes followed by a 30-minute incubation at room temperature protected from light. For luciferin detection, the luciferin-utilizing luciferase enzyme, UltraGlo (Promega Corporation), was prepared by mixing Luciferin Detection Reagent (Promega), Reconstitution Buffer (Promega), and d-Cysteine (Promega), and one volume was added to the reaction. The plate was mixed using an orbital plate shaker, and luminescence was measured using a GloMax® luminometer. Data are shown in FIG. 3; the blank includes PBS only; HX=hypoxanthine; XO=xanthine oxidase; and SOD=superoxide dismutase. […] This signal decreased in the presence of superoxide dismutase, confirming that superoxide is the source of the signal.

For assay [1], the system named is Human hepatocarcinoma cells (Hep G2). Briefly: Detection of superoxide in cells. The class given is cell-based. As to conditions: probe 12.5 uM, 1 hour at 37° C., FIG. 4. How it is done:
Human hepatocarcinoma cells (Hep G2) were plated into wells of 96-well white-walled assay tissue culture plates. Plated cells were incubated overnight in a humidified tissue culture incubator at 37° C. with 5% CO2. The following day the superoxide probe, Compound 1 (6-(4-hydroxy-3,5-dimethoxyphenoxy)benzo[d]thiazole-2-carbonitrile), was added to the cells in culture medium at a final concentration of 12.5 uM. Subsequently, dimethoxynaphthoquinone (DMNQ; 50 μM) or antimycin A (10 μM) diluted in culture medium was added to the reaction wells and the assay plate(s) were incubated for 1 hour in a humidified tissue culture incubator at 37° C. with 5% C02. For luciferin detection, the luciferin-utilizing luciferase enzyme, UltraGlo (Promega Corporation), was prepared by mixing Luciferin Detection Reagent (Promega), Reconstitution Buffer (Promega), and d-Cysteine (Promega), and one volume was added to the reaction. The plate was mixed using an orbital plate shaker, and luminescence was measured using a GloMax® luminometer.

In assay [2] the test system is RAW 247.6 macrophage cell line. The assay can be described thus: Detection of PMA-induced superoxide production by macrophages. As to conditions: 50 μl of 50 μM Compound 18 (FIG. 6A) or 100 μM Compound 20 (FIG. 6B), 2 hours at 37° C.; for luminescence signal with PMA treatment: 20 μM PMA. The class given is cell-based. On the procedure: Production of superoxide by macrophages plays an important role in immune response and inflammation. Superoxide is produced by nicotinamide adenine dinucleotide phosphate (NADPH) oxidases (known as NOX enzymes) and is induced by PMA (4β-phorbol-12-myristate-13-acetate). Here is shown an example of measuring PMA-induced superoxide production in RAW 247.6 macrophage cell line. RAW 247.6 cells were plated overnight in DMEM medium with 10% FBS. To start the experiment, the medium was removed, cells were washed once with PBS, and 50 μl of PBS containing 5 mM glucose, 1 mM MgCl2, 0.5 mM CaCl2, and 0.05% BSA was added to the cells in the presence or absence of 20 μM PMA. To measure production of superoxide, 50 μl of 50 μM Compound 18 (FIG. 6A) or 100 μM Compound 20 (FIG. 6B) was added to the cells. Cells were treated for 2 hours at 37° C. with luciferin production measured by adding equal volume of Luciferin Detection Reagent with esterases, and luminescence read after 20 minutes incubation at room temperature.

Another assay has as its system xanthine oxidase. Briefly: Detection of xanthine oxidase activity in vitro. As to conditions: 25 μl of 75 μM probe, FIG. 5. Format: biochemical. The source says: Xanthine oxidase (XO) is an enzyme that catalyzes the oxidation of hypoxanthine or xanthine to uric acid and superoxide. XO is normally found in liver and jejunum and plays an important role in the catabolism of purines. During severe liver damage, xanthine oxidase is released into blood and can be used as a marker for liver damage. Here is shown an example of measuring xanthine oxidase activity using pro-luciferin compounds described herein. Purified xanthine oxidase was 3× fold serially diluted in 0.1M Tris (pH7.5). 25 μl of diluted enzyme was transferred into wells of a 96-well assay plate, and the reaction was started by adding 25 μl of 300 μM xanthine and 25 μl of 75 μM Compound 20. After 10, 20, 30, and 60 minutes incubations at 37° C., 75 μl of Luciferin Detection Reagent containing esterases was added to the samples, and luminescence was read after additional 20 minutes incubation at room temperature.

For assay [3], the system named is RAW 247.6 macrophage cells. Briefly: Detection of superoxide production in kinetic mode (media sampling). Format: cell-based. The conditions noted are these: 50 μM probe, 20 μM PMA, 10, 20, 30 and 60 minutes, FIG. 7. How it is done: RAW 247.6 macrophage cells were plated at 30,000 cells per well overnight in DMEM medium with 10% FBS. The following day, the medium was removed, and cells were washed with PBS. 100 μl PBS containing 5 mM glucose, 1 mM MgCl2, 0.5mM CaCl2, 0.05% BSA, and 50 μM Compound 20 were added to the cells in the presence or absence of 20 μM PMA. The cells were placed back at 37° C. in tissue culture incubator. At different time points (10, 20, 30 and 60 minutes), 10 μl was removed from the samples, mixed with 10 μl of Luciferin Detection Reagent with esterases, and luminescence read following a 20 minute incubation at room temperature.

Take `COc1cc(Oc2ccc3nc(C#N)sc3c2)cc(OC)c1O` [Compound 1, 6-(4-hydroxy-3,5-dimethoxyphenoxy)benzo[d]thiazole-2-carbonitrile]: in the assay on superoxide (30-minute incubation), the “luminescence signal in the presence of NONOate” value is given as “Little to no signal”, the “luminescence signal in the presence of Rose Bengal (generates singlet oxygen)” value is “Little to no signal”, the “luminescence signal in the presence of hydrogen peroxide” value is recorded as “Little to no signal” and the “luminescence signal in the presence of sodium nitrite” value is listed as “Little to no signal”. Also, the “luminescence signal in the presence of superoxide dismutase” value with superoxide (HX + XO + SOD) was “decreased”. Also, in the assay on superoxide (hypoxanthine + xanthine oxidase (superoxide generator), 30-minute incubation at room temperature), the “luminescence signal in the presence of HX and XO” value is “strong signal”. In addition, the “luminescence signal when cells were treated with DMNQ” value in assay [1] (DMNQ 50 μM) is recorded as “increase in signal”. Besides, the “luminescence signal when cells were treated with antimycin A” value in assay [1] (antimycin A 10 μM) was “increase in signal”.
Turning to `CN(CCN(C)C(=O)Oc1ccc2nc(C3=N[C@@H](C(=O)O)CS3)sc2c1)C(=O)Oc1ccc(O)c(O)c1` [Compound 18, (S)-2-(6-(((2-(((3,4-dihydroxyphenoxy)carbonyl)(methyl)amino)ethyl)(methyl)carbamoyl)oxy)benzo[d]thiazol-2-yl)-4,5-dihydrothiazole-4-carboxylic acid], in assay [2], the “luminescence signal with PMA treatment” value is given as “increased significantly” and the “luminescence signal in the presence of cells compared to medium only control” value was “higher luminescence signal”.
Take `COC(=O)[C@H]1CSC(c2nc3ccc(OC(=O)N(C)CCN(C)C(=O)Oc4ccc(OC(C)=O)c(OC(C)=O)c4)cc3s2)=N1` [Compound 20, (S)-4-(((2-((((2-(4-(methoxycarbonyl)-4,5-dihydrothiazol-2-yl)benzo[d]thiazol-6-yl)oxy)carbonyl)(methyl)amino)ethyl)(methyl)carbamoyl)oxy)-1,2-phenylene diacetate]: in the assay on xanthine oxidase (300 μM xanthine, 10, 20, 30, and 60 minutes at 37° C.), the “increase in luminescence signal versus xanthine oxidase concentration and time” value was “linear with respect to xanthine oxidase concentration and time”. The “increase in luminescence signal, dependence on substrate” value with xanthine oxidase (25 μl of 300 μM xanthine, serially diluted XO, 37° C.) was “depended on the presence of the xanthine oxidase substrate, xanthine”. In assay [2], the “luminescence signal with PMA treatment” value is given as “increased significantly” and the “luminescence signal in the presence of cells compared to medium only control” value is on record as “higher luminescence signal”. Also, the “luminescence signal over time in cells treated with PMA” value in assay [3] is “time dependent increase in signal”.
